# Laboratory results published in patent US20250129027A1 (APOGEE PHARMACEUTICALS, INC., priority 2023, published 2025).
# Key:
# human recombinant FAAH = human recombinant FAAH (Homo sapiens (Human), UniProt O00519); experiment: In vitro inhibition of FAAH activity (fluorescent inhibitor screening kit, AMC arachidonoyl amide); format: biochemical; conditions: human recombinant FAAH; read-out: Inhibition on FAAH activity (IC50)
# Method in brief: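 Fluorogenic kit assay: AMC arachidonoyl amide is cleaved by human recombinant FAAH, read at 340-360/450-465 nm. Percent inhibition versus non-treated control; IC50 values derived from multiple compound concentrations where tested.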
# human recombinant MAGL = human recombinant MAGL (Homo sapiens (Human), UniProt Q99685); experiment: In vitro inhibition of MAGL activity (inhibitor screening kit, 4-nitrophenylacetate); format: biochemical; conditions: human recombinant MAGL
# Chain of human recombinant MAGL (Q99685 whole entry): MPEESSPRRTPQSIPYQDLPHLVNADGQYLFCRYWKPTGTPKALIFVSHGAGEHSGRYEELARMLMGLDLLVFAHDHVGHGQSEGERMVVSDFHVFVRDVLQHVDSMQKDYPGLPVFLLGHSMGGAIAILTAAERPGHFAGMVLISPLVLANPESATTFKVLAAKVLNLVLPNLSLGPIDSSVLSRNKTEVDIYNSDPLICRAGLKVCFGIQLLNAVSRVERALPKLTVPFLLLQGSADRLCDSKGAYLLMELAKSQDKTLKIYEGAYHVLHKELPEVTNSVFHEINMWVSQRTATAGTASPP
# Method in brief: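 Colorimetric kit assay: recombinant human MAGL hydrolyses 4-nitrophenylacetate to 4-nitrophenol, read by absorbance at 405-412 nm. Inhibition given as percentage of signal in treated versus untreated MAGL control.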
# Chain of human recombinant FAAH (O00519 whole entry): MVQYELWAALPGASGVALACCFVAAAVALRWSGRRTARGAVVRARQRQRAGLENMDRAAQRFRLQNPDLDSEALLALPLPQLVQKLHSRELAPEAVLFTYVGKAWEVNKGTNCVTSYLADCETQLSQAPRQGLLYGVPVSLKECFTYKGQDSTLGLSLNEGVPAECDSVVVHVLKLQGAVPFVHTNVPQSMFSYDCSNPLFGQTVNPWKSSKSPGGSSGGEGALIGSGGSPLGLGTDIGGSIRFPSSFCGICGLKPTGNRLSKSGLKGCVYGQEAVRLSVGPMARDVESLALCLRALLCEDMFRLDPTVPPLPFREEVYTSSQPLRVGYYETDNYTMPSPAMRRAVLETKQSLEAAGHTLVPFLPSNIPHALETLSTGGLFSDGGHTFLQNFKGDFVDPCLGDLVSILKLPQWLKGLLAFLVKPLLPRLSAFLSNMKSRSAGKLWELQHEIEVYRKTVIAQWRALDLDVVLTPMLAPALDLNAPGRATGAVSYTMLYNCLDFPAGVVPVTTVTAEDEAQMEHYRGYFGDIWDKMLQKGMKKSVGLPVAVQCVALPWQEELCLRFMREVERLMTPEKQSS
Structure (SMILES),IC50 (human recombinant FAAH) [µM],IC50 (human recombinant MAGL) [µM]
"O=C(NC1CCCCCC1)Oc1cccc(-c2cncc(-c3nnco3)c2)c1 [Example 137, 3-(5-(1,3,4-oxadiazol-2-yl)pyridin-3-yl)phenyl cycloheptylcarbamate]",0.01 to 0.02,> 10
"O=C(NC1CCCC1)Oc1cccc(-c2cncc(-c3nnco3)c2)c1 [Example 138, 3-(5-(1,3,4-oxadiazol-2-yl)pyridin-3-yl)phenyl cyclopentylcarbamate]",0.01 to 0.1,> 50
"O=C(NC1CCCCC1)Oc1cccc(-c2cncc(-c3nnco3)c2)c1 [Example 139, 3-(5-(1,3,4-oxadiazol-2-yl)pyridin-3-yl)phenyl cyclohexylcarbamate]",0.01 to 0.1,> 50
"O=C(Nc1cccc2ccccc12)Oc1cccc(-c2cncc(-c3nnco3)c2)c1 [Example 140, 3-(5-(1,3,4-oxadiazol-2-yl)pyridin-3-yl)phenyl naphthalen-1-ylcarbamate]",> 0.1,> 50
"O=C(Oc1cccc(-c2cncc(-c3nnco3)c2)c1)N1CCCCC1 [Example 141, 3-(5-(1,3,4-oxadiazol-2-yl)pyridin-3-yl)phenyl piperidine-1-carboxylate]",~1,> 10
"CN(C(=O)Oc1cccc(-c2cncc(-c3nnco3)c2)c1)C1CCCCC1 [Example 142, 3-(5-(1,3,4-oxadiazol-2-yl)pyridin-3-yl)phenyl cyclohexyl(methyl)carbamate]",1 to 10,> 10
"CC1CCCCN1C(=O)Oc1cccc(-c2cncc(-c3nnco3)c2)c1 (centres unmarked) [Example 143, 3-(5-(1,3,4-oxadiazol-2-yl)pyridin-3-yl)phenyl 2-methylpiperidine-1-carboxylate]",~10,> 10
"O=C(Oc1cccc(-c2cncc(-c3nnco3)c2)c1)N1CCCCCC1 [Example 145, 3-(5-(1,3,4-oxadiazol-2-yl)pyridin-3-yl)phenyl azepane-1-carboxylate]",> 1,> 10
"O=C(NC1CC2(CCC2)C1)Oc1cccc(-c2cncc(-c3nnco3)c2)c1 [Example 147, 3-(5-(1,3,4-oxadiazol-2-yl)pyridin-3-yl)phenyl spiro[3.3]heptan-2-ylcarbamate]",0.01 to 0.1,> 10
"O=C(Oc1cccc(-c2cncc(-c3nnco3)c2)c1)N1CC2CC2C1 (centres unmarked) [Example 148, 3-(5-(1,3,4-oxadiazol-2-yl)pyridin-3-yl)phenyl 3-azabicyclo[3.1.0]hexane-3-carboxylate]",> 1,> 10
"O=C(Oc1cccc(-c2cncc(-c3nnco3)c2)c1)N1CC2CCCC2C1 (centres unmarked) [Example 149, 3-(5-(1,3,4-oxadiazol-2-yl)pyridin-3-yl)phenyl hexahydrocyclopenta[c]pyrrole-2(1H)-carboxylate]",0.01 to 0.1,1 to 10
"O=C(Oc1cccc(-c2cncc(-c3nnco3)c2)c1)N1C2CCCC1CC2 [Example 150, 3-(5-(1,3,4-oxadiazol-2-yl)pyridin-3-yl)phenyl 8-azabicyclo[3.2.1]octane-8-carboxylate]",> 1,> 10
"O=C(Oc1cccc(-c2cncc(-c3nnco3)c2)c1)N1CCOCC1 [Example 151, 3-(5-(1,3,4-oxadiazol-2-yl)pyridin-3-yl)phenyl morpholine-4-carboxylate]",1 to 10,> 10
"O=C(Oc1cccc(-c2cncc(-c3nnco3)c2)c1)N1CC2(COC2)C1 [Example 152, 3-(5-(1,3,4-oxadiazol-2-yl)pyridin-3-yl)phenyl 2-oxa-6-azaspiro[3.3]heptane-6-carboxylate]",> 1,> 10
"O=C(Oc1cccc(-c2cncc(-c3nnco3)c2)c1)N1CCC2(CC1)COC2 [Example 153, 3-(5-(1,3,4-oxadiazol-2-yl)pyridin-3-yl)phenyl 2-oxa-7-azaspiro[3.5]nonane-7-carboxylate]",1 to 10,> 10
"CCCCN(CCCC)C(=O)Oc1cccc(-c2cncc(-c3nnco3)c2)c1 [Example 155, 3-(5-(1,3,4-oxadiazol-2-yl)pyridin-3-yl)phenyl dibutylcarbamate]",> 1,~10
